Experimental data as given in publication PMC10831071, “Reaction hijacking inhibition of Plasmodium falciparum asparagine tRNA synthetase” (Nature Communications, 2024).
Where “and” joins values, the source holds several entries; their conditions need not be identical. Equal entries are not always repeated. Where two headings read alike, the source gives them in different places.

Legend:
Type in all cases: cell-based, Plasmodium falciparum
[1] = test system: PfNT4 cKD P. falciparum line; assay: microbe, parasite or virus in culture; conditions: Plasmodium falciparum, PfNT4 line, individual repeats
Excerpt: (§1) Conditional knockdown (cKD) P. falciparum lines were generated for the cytosolic AsnRS (PF3D7_0211800), cytosolic AlaRS (PF3D7_1367700), cytosolic GlyRS (GlyRS; PF3D7_1420400), PfNT4 (PF3D7_0103200), P. falciparum glutamate dehydrogenase 3 (GDH3; PF3D7_0802000), and P. falciparum carbonic anhydrase (CA, PF3D7_1140000) by fusing the coding sequences and non-coding RNA aptamer sequences in the 3’-UTR, permitting translation regulation using the TetR-DOZI system[59],[60]. Gene editing was achieved by CRISPR/SpCas9 using the linear pSN054 vector that contains cloning sites for the left homology region (LHR) and the right homology region (RHR) as well a target-specific guide RNA under control of the T7 promoter. Cloning into the pSN054 donor vector was carried out following described procedures[59],[60]. The vector includes V5-2xHA epitope tags, a 10x tandem array of TetR aptamers upstream of an Hsp86 3’UTR, and a multicistronic cassette for expression of TetR-DOZI (translation regulation), blasticidin S-deaminase (selection marker) and a Renilla luciferase (RLuc) reporter. All primer and synthetic fragment sequences that were generated using the BioXP™ system and IDT gBlocks™ are included in Supplementary Table 9. The final constructs were sequence-verified and further confirmed by restriction digests.
(§2) Transfection into Cas9- and T7 RNA polymerase-expressing NF54 parasites was carried out by pre-loading red blood cells (RBCs) with the donor vector[61]. […] Cultures were monitored by Giemsa smears and RLuc measurements.
(§3) DMSO- and dihydroartemisinin-treatment (0.5 µM) served as reference controls.

[2] = test system: PfAlaRS cKD P. falciparum line; assay: microbe, parasite or virus in culture; conditions: for Growth: PfAlaRS K/D; for IC50: PfAlaRS line, individual repeats
Excerpt: as §1, §2, §3

[3] = test system: PfGlyRS cKD P. falciparum line; assay: microbe, parasite or virus in culture; conditions: for Growth: PfGlyRS K/D; for IC50: PfGlyRS line, individual repeats
Excerpt: as §1, §2, §3

[4] = test system: PfCA cKD P. falciparum line; assay: microbe, parasite or virus in culture; conditions: for Growth: PfCA K/D
Excerpt: as §1, §2, §3

[5] = test system: P. falciparum Dd2 parent; assay: 72 h sensitivity of wildtype Dd2 parent line; conditions: for growth after 72 h exposure, normalised to no drug: replicates
[6] = Plasmodium falciparum, 1 nM, […] aTc or no aTc
[7] = Plasmodium falciparum, 500 nM aTc

Nc1ncnc2cc(-c3cccc(S(N)(=O)=O)c3)sc12 [OSM-S-106]
IC50 ([1]; 1 nM, […] aTc or no aTc): 6.09 nM
IC50 ([1]; 500 nM aTc): 19.9 nM
Growth ([2]; 3.125 nM OSM-S-106, 500 nM aTc): 106.745 and 98.2451 and 120.926
Growth ([2]; 6.25 nM OSM-S-106, 500 nM aTc): 90.3733 and 84.6837 and 109.578
Growth ([2]; 12.5 nM OSM-S-106, 500 nM aTc): 88.5694 and 88.7266 and 97.0041
Growth ([2]; 25 nM OSM-S-106, 500 nM aTc): 83.1875 and 95.5017 and 98.3659
Growth ([2]; 50 nM OSM-S-106, 500 nM aTc): 55.6885 and 91.3478 and 80.2088
Growth ([2]; 200 nM OSM-S-106, 500 nM aTc): 76.3648
Growth ([2]; 200 nM OSM-S-106, […] aTc): 67.5946
IC50 ([2]; 1 nM, […] aTc or no aTc): 46.2 nM
IC50 ([2]; 500 nM aTc): 99.7 nM
IC50 [2, 6]: 56.8 nM
IC50 [2, 7]: 78.4 nM
Growth ([3]; 3.125 nM OSM-S-106, 500 nM aTc): 112.465 and 111.772 and 85.4538
Growth ([3]; 6.25 nM OSM-S-106, 500 nM aTc): 122.27 and 121.35 and 91.2762
Growth ([3]; 12.5 nM OSM-S-106, 500 nM aTc): 106.05 and 112.162 and 76.632
Growth ([3]; 100 nM OSM-S-106, 500 nM aTc): 9.878 and 6.142 and 8.685
Growth ([3]; 200 nM OSM-S-106, 500 nM aTc): 7.891 and 8.53 and 4.96
IC50 ([3]; 1 nM, […] aTc or no aTc): 40.7 nM
IC50 ([3]; 500 nM aTc): 37.2 nM
IC50 [3, 6]: 39.5 nM
IC50 [3, 7]: 39.3 nM
Growth ([4]; 3.125 nM OSM-S-106, 500 nM aTc): 126.787 and 158.672 and 147.974
Growth ([4]; 3.125 nM OSM-S-106, no aTc): 126.423 and 113.544 and 101.394
Growth ([4]; 6.25 nM OSM-S-106, 500 nM aTc): 92.3654 and 131.4 and 126.99
Growth ([4]; 6.25 nM OSM-S-106, no aTc): 110.949 and 103.392 and 134.667
Growth ([4]; 12.5 nM OSM-S-106, 500 nM aTc): 103.771 and 150.344 and 136.72
Growth ([4]; 12.5 nM OSM-S-106, no aTc): 107.898 and 113.66 and 101.587
Growth ([4]; 25 nM OSM-S-106, 500 nM aTc): 66.7109 and 104.005 and 106.363
Growth ([4]; 25 nM OSM-S-106, no aTc): 55.2693 and 67.1039 and 67.9395
Growth ([4]; 50 nM OSM-S-106, 500 nM aTc): 39.8979 and 23.9771 and 45.5735
Growth ([4]; 50 nM OSM-S-106, no aTc): 31.2463 and 15.9234 and 30.4793
Growth ([4]; 100 nM OSM-S-106, 500 nM aTc): 11.4398
Growth ([4]; 100 nM OSM-S-106, no aTc): 10.8379 and 9.475 and 12.418
Growth ([4]; 200 nM OSM-S-106, 500 nM aTc): 5.818 and 8.3279 and 9.44
Growth ([4]; 200 nM OSM-S-106, no aTc): 6.983 and 9.353 and 10.7306
Growth ([4]; 400 nM OSM-S-106, no aTc): 0.8215 and 0.8297 and 1.231
IC50 ([4]; PfCA line, 500 nM aTc, individual repeats): 31.3 nM and 37.6 nM
IC50 ([4]; Plasmodium falciparum, PfCA line, 1 nM, […] aTc or no aTc, individual repeats): 23 nM
IC50 ([4]; Plasmodium falciparum, PfCA line, 500 nM aTc, individual repeats): 29.2 nM
IC50 ([4]; Plasmodium falciparum, read-out: Mean IC50 with 500 nM aTc, PfCA line, 500 nM aTc): 33 nM
IC50 ([4]; Plasmodium falciparum, read-out: Mean IC50 with low (1 or […])/ no aTc, PfCA knockdown, no aTc): 26 nM
growth after 72 h exposure, normalised to no drug ([5]; Dd2 parent, 3.90625 nM): 105.433 and 105.733 and 104.567 and 104.167 and 104.633
growth after 72 h exposure, normalised to no drug ([5]; Dd2 parent, 7.8125 nM): 105.2 and 103.8 and 105.633 and 102.933 and 104.1
growth after 72 h exposure, normalised to no drug ([5]; Dd2 parent, 31.25 nM): 88.9667 and 98.9 and 97.0667 and 93.5333 and 97.5667
growth after 72 h exposure, normalised to no drug ([5]; Dd2 parent, 62.5 nM): 45.3 and 68.4 and 68.8333 and 58.4667 and 65.5
growth after 72 h exposure, normalised to no drug ([5]; Dd2 parent, 125 nM): 7.633 and 16.6667 and 15.5333 and 13.8333 and 17.5667
growth after 72 h exposure, normalised to no drug ([5]; Dd2 parent, 250 nM): 0.2 and 1.267 and 0.5667 and -1.767 and 2.067
growth after 72 h exposure, normalised to no drug ([5]; Dd2 parent, 500 nM): -1.167 and 0 and -0.8 and -3.167 and 0.4
growth after 72 h exposure, normalised to no drug ([5]; Dd2 parent, 1000 nM): -1.867 and -0.3333 and -1.3 and -3.5 and -0.4667
growth after 72 h exposure, normalised to no drug ([5]; Dd2 parent, 2000 nM): -0.8333 and -0.3667 and -0.8667 and -2.833 and 0.5
IC50 ([5]; Dd2 parent, individual experiments): 75.6 nM and 76.2 nM and 70 nM and 74.2 nM
IC50 ([5]; Plasmodium falciparum, DD2, Dd2 parent, individual experiments): 57 nM
IC50 ([5]; Plasmodium falciparum, DD2, Dd2 parent, mean ± S.D., five experiments): 71 nM
